Results: paper PMC3933250 (Annals of Oncology, 2014)

Columns and labels:
[1] = Cilengitide pharmacokinetic profile in plasma during cycle 1; assay type: in vivo, human; details: PFE + CIL1W and PFE + CIL2W groups
R/M-SCCHN patients = details: ≤2000 mg cilengitide plus PFE, phase I part; cited from earlier work

For `CC(C)[C@H]1C(=O)N[C@@H](CCCN=C(N)N)C(=O)NCC(=O)N[C@@H](CC(=O)O)C(=O)N[C@H](Cc2ccccc2)C(=O)N1C` [cilengitide, Cilengitide], the “Influence of the different cilengitide dosing on cetuximab exposure” value [1] is listed as “no clinically relevant influence” and the “Dose-limiting or unexpected toxicities” value (R/M-SCCHN patients) is listed as “no dose-limiting or unexpected toxicities”.
